Assay results: patent US20250163104A1, “MACROCYCLIC IMMUNOMODULATORS” (priority 2021, published 2025)
Where a SMILES comes first, the peptide text is derived from it. Bridges are numbered along the chain shown (N, C = ends). [ ]: non-standard residue; d: D form. The star is where a group is joined. ξ: configuration not given here. Bip(3'-COOH) = N[C@@H](Cc1ccc(-c2cccc(C(=O)O)c2)cc1)C(=O)O; Phe(3-CF3) = N[C@@H](Cc1cccc(C(F)(F)F)c1)C(=O)O; Phe(4-COOH) = N[C@@H](Cc1ccc(C(=O)O)cc1)C(=O)O; Bip = N[C@@H](Cc1ccc(-c2ccccc2)cc1)C(=O)O; Phe(3-OMe) = COc1cccc(C[C@H](N)C(=O)O)c1; Phe(4-CN) = N#Cc1ccc(C[C@H](N)C(=O)O)cc1; Phe(3-Me) = Cc1cccc(C[C@H](N)C(=O)O)c1; Phe(2-F) = N[C@@H](Cc1ccccc1F)C(=O)O; Val(3-OH) = CC(C)(O)[C@H](N)C(=O)O; 4Pal = N[C@@H](Cc1ccncc1)C(=O)O; Cha = N[C@@H](CC1CCCCC1)C(=O)O; Cit = NC(=O)NCCC[C@H](N)C(=O)O; Ile(3ξ) = CCC(C)[C@H](N)C(=O)O; dCha = N[C@H](CC1CCCCC1)C(=O)O; Thr(3ξ) = CC(O)[C@H](N)C(=O)O; Tle = CC(C)(C)[C@H](N)C(=O)O; Carboxymethyl = O=C(O)C*; Orn = NCCC[C@H](N)C(=O)O; Dab = NCC[C@H](N)C(=O)O; Dap = NC[C@H](N)C(=O)O; Propargyl = C#CC*

What follows are compounds tested against T1, human PD-1 / PD-L1-Ig binding on Jurkat cell line over-expressing human PD-1 (Jurkat-PD-1) (Homo sapiens, UniProt Q15116) (assay: Jurkat-PD-1 Cell Binding High-Content Screening Assay (CBA)). Settings: Jurkat-PD-1 cells, PE-labeled PD-L1-Ig 20 nM final; read-out: Jurkat HPD1_PDL1 IC50.
T1 construct: expressed in transfected cells; host or cells: Jurkat
Type: cell-based
Procedure, shortened: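 Jurkat-hPD-1 cells in DMEM with 10% fetal calf serum receive test compound and are held at 37° C for 2 h. PE-labeled PD-L1-Ig is added at 20 nM final and left for 1 hour. Cells are then fixed and Hoechst-stained, and binding is measured by imaging.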

T1 sequence (Q15116 25-288): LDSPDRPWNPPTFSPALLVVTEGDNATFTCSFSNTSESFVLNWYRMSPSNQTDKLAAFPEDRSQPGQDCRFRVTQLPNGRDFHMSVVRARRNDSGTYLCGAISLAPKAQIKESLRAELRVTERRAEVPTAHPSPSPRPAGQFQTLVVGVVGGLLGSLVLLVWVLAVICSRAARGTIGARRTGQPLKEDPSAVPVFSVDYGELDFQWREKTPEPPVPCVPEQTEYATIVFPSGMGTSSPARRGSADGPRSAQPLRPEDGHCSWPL

**Q.** For `CC(C)C[C@H]1NC(=O)[C@H](CCCN)NC(=O)[C@H](CCC(=O)O)NC(=O)[C@H](Cc2ccc(-c3ccccc3)cc2)NC(=O)[C@H](C(C)C)NC(=O)[C@H](Cc2cccc(C(F)(F)F)c2)NC(=O)[C@H](CC(=O)O)NC(=O)[C@H](Cc2ccncc2)NC(=O)[C@H](Cc2ccc(OCC(=O)O)cc2)NC(=O)CSC[C@@H](C(=O)N[C@@H](C)C(N)=O)NC(=O)[C@H]([C@@H](C)O)NC(=O)[C@H](C(C)C)NC(=O)[C@H](CC2CCCCC2)NC(=O)[C@H](CCN)NC1=O` [Compound 1462] ({CH2CO}-Y(Carboxymethyl)[4Pal]D[Phe(3-CF3)]V[Bip]E[Orn][dL][Dab][Cha]VTCA-NH2; thioether N-14), which IC50 is on record?
**A.** 16.8 nM

**Q.** How did the IC50 turn out when `CC(C)C[C@H]1NC(=O)[C@H](CCCN)NC(=O)[C@H](CCC(=O)O)NC(=O)[C@H](Cc2ccc(-c3ccccc3)cc2)NC(=O)[C@H](C(C)C)NC(=O)[C@H](Cc2ccccc2F)NC(=O)[C@H](CC(=O)O)NC(=O)[C@H](Cc2ccc(C#N)cc2)NC(=O)[C@H](CC(N)=O)NC(=O)CSC[C@@H](C(=O)N[C@@H](C)C(N)=O)NC(=O)[C@H]([C@@H](C)O)NC(=O)[C@H](C(C)C)NC(=O)[C@H](CC2CCCCC2)NC(=O)[C@H](CCN)NC1=O` [Compound 2212] ({CH2CO}-N[Phe(4-CN)]D[Phe(2-F)]V[Bip]E[Orn][dL][Dab][Cha]VTCA-NH2; thioether N-14) was run?
**A.** 37.6 nM

**Q.** How did the IC50 turn out when `Cc1cccc(C[C@@H]2NC(=O)[C@H](CC(=O)O)NC(=O)[C@H](Cc3ccncc3)NC(=O)[C@H](CN)NC(=O)CSC[C@@H](C(=O)NCC(N)=O)NC(=O)[C@H](CO)NC(=O)[C@H](C(C)C)NC(=O)[C@H](CC(C)C)NC(=O)[C@H](CCN)NC(=O)[C@@H](CC(C)C)NC(=O)[C@H](CCCN)NC(=O)[C@H](C(C)C)NC(=O)[C@H](Cc3ccc(-c4ccccc4)cc3)NC(=O)[C@H](CC(C)C)NC2=O)c1` [Compound 1261] ({CH2CO}-[Dap][4Pal]D[Phe(3-Me)]L[Bip]V[Orn][dL][Dab]LVSCG-NH2; thioether N-14) was run?
**A.** 13.1 nM

**Q.** For `COc1cccc(C[C@@H]2NC(=O)[C@H](CC(=O)O)NC(=O)[C@H](Cc3ccc(OCC(=O)O)cc3)NC(=O)[C@H](CN)NC(=O)CSC[C@@H](C(=O)N[C@@H](C)C(N)=O)NC(=O)[C@H]([C@@H](C)O)NC(=O)[C@H](C(C)C)NC(=O)[C@H](CC3CCCCC3)NC(=O)[C@H](CCN)NC(=O)[C@@H](CC(C)C)NC(=O)[C@H](CCCN)NC(=O)[C@H](CCC(=O)O)NC(=O)[C@H](Cc3ccc(-c4ccccc4)cc3)NC(=O)[C@H](C(C)C)NC2=O)c1` [Compound 1467], which IC50 is on record?
**A.** 112 nM

**Q.** For `COc1cccc(C[C@@H]2NC(=O)[C@H](CN)NC(=O)CSC[C@@H](C(=O)N[C@@H](C)C(N)=O)NC(=O)[C@H]([C@@H](C)O)NC(=O)[C@H](C(C)C)NC(=O)[C@H](CC3CCCCC3)NC(=O)[C@H](CCN)NC(=O)[C@@H](CC(C)C)NC(=O)[C@H](CCCN)NC(=O)[C@H](CCCNC(N)=O)NC(=O)[C@H](Cc3ccc(-c4ccccc4)cc3)NC(=O)[C@H](C(C)C)NC(=O)[C@H](Cc3c[nH]c4ccccc34)NC(=O)[C@H](CC(=O)O)NC2=O)c1` [Compound 2091] ({CH2CO}-[Dap][Phe(3-OMe)]DWV[Bip][Cit][Orn][dL][Dab][Cha]VTCA-NH2; thioether N-14), which IC50 is on record?
**A.** 24.3 nM

**Q.** Which IC50 does the source give for `C#CCOc1ccc(C[C@@H]2NC(=O)[C@H](C(C)C)NC(=O)[C@H](CC3CCCCC3)NC(=O)[C@H](CCN)NC(=O)[C@@H](CC(C)C)NC(=O)[C@H](CCCN)NC(=O)[C@H](Cc3ccc(OCC(=O)O)cc3)NC(=O)[C@H](Cc3ccc(-c4ccccc4)cc3)NC(=O)[C@H](Cc3ccc(OCC(=O)O)cc3)NC(=O)[C@H](Cc3cccc(C)c3)NC(=O)[C@H](CC(=O)O)NC(=O)[C@H](Cc3ccc(OCC(=O)O)cc3)NC(=O)[C@H](Cc3ccncc3)NC(=O)CSC[C@@H](C(=O)N[C@@H](CCN)C(N)=O)NC2=O)cc1` [Compound 1821] ({CH2CO}-[4Pal]Y(Carboxymethyl)D[Phe(3-Me)]Y(Carboxymethyl)[Bip]Y(Carboxymethyl)[Orn][dL][Dab][Cha]VY(Propargyl)C[Dab]-NH2; thioether N-14) here?
**A.** 191 nM

**Q.** Which IC50 does the source give for `CC(C)C[C@H]1NC(=O)[C@H](CCCN)NC(=O)[C@H](C(C)C)NC(=O)[C@H](Cc2ccc(-c3ccccc3)cc2)NC(=O)[C@H](C(C)C)NC(=O)[C@H](Cc2c[nH]c3ccccc23)NC(=O)[C@H](CC(=O)O)NC(=O)[C@H](Cc2ccc(OCC(=O)O)cc2)NC(=O)[C@H](C(C)O)NC(=O)CSC[C@@H](C(N)=O)NC(=O)[C@H](C(C)O)NC(=O)[C@H](C(C)C)NC(=O)[C@H](CC2CCCCC2)NC(=O)[C@H](CCN)NC1=O` (stereo partly drawn) [Compound 2599] ({CH2CO}-[Thr(3ξ)]Y(Carboxymethyl)DWV[Bip]V[Orn][dL][Dab][Cha]V[Thr(3ξ)]C-NH2; thioether N-14) here?
**A.** 17.8 nM

**Q.** How did the IC50 turn out when `CC(C)C[C@H]1NC(=O)[C@H](CCCN)NC(=O)[C@H](C(C)C)NC(=O)[C@H](Cc2ccc(-c3ccccc3)cc2)NC(=O)[C@H](C(C)C)NC(=O)[C@H](Cc2c[nH]c3ccccc23)NC(=O)[C@H](CC(=O)O)NC(=O)[C@H](Cc2ccc(OCC(=O)O)cc2)NC(=O)[C@H](Cc2ccncc2)NC(=O)CSC[C@@H](C(=O)N[C@@H](C)C(N)=O)NC(=O)[C@H](C(C)O)NC(=O)[C@H](C(C)C)NC(=O)[C@H](CC2CCCCC2)NC(=O)[C@H](CCN)NC1=O` (stereo partly drawn) [Compound 2522] was run?
**A.** 6.9 nM

**Q.** Which IC50 does the source give for `CC[C@H](C)[C@@H]1NC(=O)[C@H](Cc2ccc(-c3ccccc3)cc2)NC(=O)[C@H](C(C)C)NC(=O)[C@H](Cc2c[nH]c3ccccc23)NC(=O)[C@H](CC(=O)O)NC(=O)[C@H](Cc2ccc(O)cc2)NC(=O)[C@H](CC(N)=O)NC(=O)CSC[C@@H](C(=O)N[C@@H](C)C(N)=O)NC(=O)[C@H]([C@@H](C)O)NC(=O)[C@H](C(C)C)NC(=O)[C@H](CC(C)C)NC(=O)[C@H](CCN)NC(=O)[C@@H](CC(C)C)NC(=O)[C@H](CCCN)NC1=O` [Compound 1038] ({CH2CO}-NYDWV[Bip]I[Orn][dL][Dab]LVTCA-NH2; thioether N-14) here?
**A.** 7 nM

**Q.** `CC(C)C[C@@H]1NC(=O)[C@H](Cc2c[nH]c3ccccc23)NC(=O)[C@H](CC(=O)O)NC(=O)[C@H](Cc2ccc(O)cc2)NC(=O)[C@H](Cc2ccccc2)NC(=O)CSC[C@@H](C(=O)NCC(N)=O)NC(=O)[C@H](CO)NC(=O)[C@H](C(C)C)NC(=O)[C@H](CC(C)C)NC(=O)[C@H](CC(N)=O)NC(=O)[C@@H](C)NC(=O)[C@H](CCCN)NC(=O)[C@H](C(C)C)NC(=O)[C@H](Cc2ccc(-c3ccccc3)cc2)NC1=O` [Compound 1093] ({CH2CO}-FYDWL[Bip]V[Orn][dA]NLVSCG-NH2; thioether N-14) was tested. Which IC50 did it give?
**A.** 120 nM

**Q.** How did the IC50 turn out when `CC(C)C[C@H]1NC(=O)[C@H](CCCN)NC(=O)[C@H](CCCNC(N)=O)NC(=O)[C@H](Cc2ccc(-c3ccccc3)cc2)NC(=O)[C@H]([C@@H](C)O)NC(=O)[C@H](Cc2c[nH]c3ccccc23)NC(=O)[C@H](CC(=O)O)NC(=O)[C@H](Cc2ccc(OCC(=O)O)cc2)NC(=O)[C@H](CN)NC(=O)CSC[C@@H](C(=O)N[C@@H](C)C(N)=O)NC(=O)[C@H]([C@@H](C)O)NC(=O)[C@H](C(C)C)NC(=O)[C@H](CC2CCCCC2)NC(=O)[C@H](CCN)NC1=O` [Compound 1315] ({CH2CO}-[Dap]Y(Carboxymethyl)DWT[Bip][Cit][Orn][dL][Dab][Cha]VTCA-NH2; thioether N-14) was run?
**A.** 18.6 nM

**Q.** For `CC(C)[C@@H]1NC(=O)[C@H](Cc2c[nH]c3ccccc23)NC(=O)[C@H](CC(=O)O)NC(=O)[C@H](Cc2ccc(C(=O)O)cc2)NC(=O)[C@H](Cc2ccc(OCC(=O)O)cc2)NC(=O)CSC[C@@H](C(=O)N[C@@H](C)C(N)=O)NC(=O)[C@H]([C@@H](C)O)NC(=O)[C@H](C(C)C)NC(=O)[C@H](CC2CCCCC2)NC(=O)[C@H](CCN)NC(=O)[C@@H](CC2CCCCC2)NC(=O)[C@H](CCCN)NC(=O)[C@H](CCCNC(N)=O)NC(=O)[C@H](Cc2ccc(-c3ccccc3)cc2)NC1=O` [Compound 1642] ({CH2CO}-Y(Carboxymethyl)[Phe(4-COOH)]DWV[Bip][Cit][Orn][dCha][Dab][Cha]VTCA-NH2; thioether N-14), which IC50 is on record?
**A.** 30.4 nM

**Q.** With `CCC(C)[C@@H]1NC(=O)[C@H](Cc2ccc(-c3ccccc3)cc2)NC(=O)[C@H](C(C)C)NC(=O)[C@H](Cc2c[nH]c3ccccc23)NC(=O)[C@H](CC(=O)O)NC(=O)[C@H](Cc2ccc(-c3cccc(C(=O)O)c3)cc2)NC(=O)[C@H](CC(N)=O)NC(=O)CSC[C@@H](C(=O)N[C@@H](C)C(N)=O)NC(=O)[C@H]([C@@H](C)O)NC(=O)[C@H](C(C)C)NC(=O)[C@H](CC2CCCCC2)NC(=O)[C@H](CCN)NC(=O)[C@@H](CC(C)C)NC(=O)[C@H](CCCN)NC1=O` (stereo partly drawn) [Compound 2217] ({CH2CO}-N[Bip(3'-COOH)]DWV[Bip][Ile(3ξ)][Orn][dL][Dab][Cha]VTCA-NH2; thioether N-14) as the compound, how does the IC50 read?
**A.** 16.8 nM

**Q.** Which IC50 does the source give for `Cc1cccc(C[C@@H]2NC(=O)[C@H](CC(=O)O)NC(=O)[C@H](Cc3ccc(OCC(=O)O)cc3)NC(=O)[C@H](Cc3ccncc3)NC(=O)CSC[C@@H](C(=O)N[C@@H](CCN)C(N)=O)NC(=O)[C@H](CCC(N)=O)NC(=O)[C@H](C(C)(C)O)NC(=O)[C@H](CC3CCCCC3)NC(=O)[C@H](CCN)NC(=O)[C@@H](CC(C)C)NC(=O)[C@H](CCCN)NC(=O)[C@H](Cc3ccc(OCC(=O)O)cc3)NC(=O)[C@H](Cc3ccc(-c4ccccc4)cc3)NC(=O)[C@H](Cc3ccc(OCC(=O)O)cc3)NC2=O)c1` [Compound 2068] ({CH2CO}-[4Pal]Y(Carboxymethyl)D[Phe(3-Me)]Y(Carboxymethyl)[Bip]Y(Carboxymethyl)[Orn][dL][Dab][Cha][Val(3-OH)]QC[Dab]-NH2; thioether N-14) here?
**A.** 8.2 nM

**Q.** `Cc1cccc(C[C@@H]2NC(=O)[C@H](CC(=O)O)NC(=O)[C@H](Cc3ccc(C(=O)O)cc3)NC(=O)[C@H](Cc3ccncc3)NC(=O)CSC[C@@H](C(N)=O)NC(=O)[C@H]([C@@H](C)O)NC(=O)[C@H](C(C)(C)C)NC(=O)[C@H](CC3CCCCC3)NC(=O)[C@H](CCN)NC(=O)[C@@H](CC(C)C)NC(=O)[C@H](CCCN)NC(=O)[C@H](CCCNC(N)=O)NC(=O)[C@H](Cc3ccc(-c4ccccc4)cc3)NC(=O)[C@H](C(C)C)NC2=O)c1` [Compound 2266] ({CH2CO}-[4Pal][Phe(4-COOH)]D[Phe(3-Me)]V[Bip][Cit][Orn][dL][Dab][Cha][Tle]TC-NH2; thioether N-14) was tested. Which IC50 did it give?
**A.** 18.2 nM
